Target: T1, Recombinant human GR (Homo sapiens, UniProt P04150)
T1 construct: purchased Invitrogen P2816
T1 sequence (P04150 1-777): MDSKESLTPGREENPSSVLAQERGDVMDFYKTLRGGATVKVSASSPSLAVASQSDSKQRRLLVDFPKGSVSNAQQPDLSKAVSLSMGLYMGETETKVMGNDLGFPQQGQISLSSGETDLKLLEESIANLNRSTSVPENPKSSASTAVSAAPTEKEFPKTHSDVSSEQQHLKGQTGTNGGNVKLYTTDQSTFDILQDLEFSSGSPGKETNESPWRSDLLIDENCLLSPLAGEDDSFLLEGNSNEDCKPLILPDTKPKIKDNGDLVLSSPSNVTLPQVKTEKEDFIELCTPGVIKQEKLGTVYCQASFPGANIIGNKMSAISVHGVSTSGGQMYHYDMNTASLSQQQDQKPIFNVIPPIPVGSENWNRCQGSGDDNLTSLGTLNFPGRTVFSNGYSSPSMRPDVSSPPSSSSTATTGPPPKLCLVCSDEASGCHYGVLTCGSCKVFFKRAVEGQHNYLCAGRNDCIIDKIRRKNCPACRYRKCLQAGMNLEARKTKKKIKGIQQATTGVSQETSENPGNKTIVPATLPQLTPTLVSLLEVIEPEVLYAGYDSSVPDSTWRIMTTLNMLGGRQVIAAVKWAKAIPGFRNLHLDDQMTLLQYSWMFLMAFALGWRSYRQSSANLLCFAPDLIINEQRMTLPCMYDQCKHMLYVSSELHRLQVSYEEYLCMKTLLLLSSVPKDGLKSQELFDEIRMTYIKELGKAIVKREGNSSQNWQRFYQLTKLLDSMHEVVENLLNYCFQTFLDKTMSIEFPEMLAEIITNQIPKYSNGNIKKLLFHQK
Test: GR competitor assay (receptor competitor assay by fluorescence polarization, Invitrogen kit P2816)
Details: 20 μM test compound solution (10 μL per well plus 5 μL 4×GS1 and 5 μL 4×GR); relative to 2 mM dexamethasone positive control; ratios of 100% or more are indicated by 100%; read-out: GR Binding ratio (%)
Protocol: In order to evaluate a binding activity to GR, a receptor competitor assay was carried out by a fluorescence polarization method. In the assay, a GR competitor assay kit (manufactured by Invitrogen, cat No. P2816) was used, and a procedure was carried out according to the protocol attached to the kit. Hereinafter, the specific method will be described.
GR screening buffer: A buffer containing 10 mM potassium phosphate (pH 7.4), 20 mM sodium molybdate (Na2MoO4), 0.1 mM ethylene diamine tetraacetic acid (EDTA), 5 mM dithiothreitol (DTT), 0.1 mM stabilizing peptide and 2% dimethylsulfoxide was prepared.
4×GS1 solution: Fluormone™ GS1, which is a fluorescent glucocorticoid ligand, was diluted with GR screening buffer, whereby a 4 nM solution was prepared.
4×GR solution: Recombinant human GR was diluted with GR screening buffer, whereby a 16 nM solution was prepared.
After a test compound was dissolved in dimethylsulfoxide, the resulting solution was diluted with GR screening buffer, whereby a 20 μM test compound solution was prepared.
1) The test compound solution was added in an amount of 10 μL into each well of a 384-well plate, and then, 4×GS1 solution and 4×GR solution were added in an amount of 5 μL into each well, respectively.
2) The plate was incubated in a dark place at room temperature for 2 to 4 hours.
3) By using a multimode plate reader, Analyst™ HT (manufactured by LJL Biosystems), fluorescence polarization of each well was measured. As the blank, a well containing GR screening buffer in place of the test compound and 4×GS1 solution was used.
4) The same procedure as that in the above 1) to 3) was carried out except that GR screening buffer was used in place of the test compound solution, and the obtained result was taken as the negative control.
5) The same procedure as that in the above 1) to 3) was carried out except that 2 mM dexamethasone was used in place of the test compound solution, and the obtained result was taken as the positive control.
A GR binding ratio (%) was calculated from the following equation. GR binding ratio(%)=100×[1−(fluorescence polarization of test compound solution−fluorescence polarization of positive control solution)/(fluorescence polarization of negative control solution fluorescence polarization of positive control solution)] (Test Results and Discussion)

SMILES | inhibition at 20 µM (stock) [%] | inhibition at 20 µM [%]
COc1cc(OC(=O)c2cccc(C(C)=O)c2)ccc1-c1ccc2c(c1COC(=O)c1ccc(C)s1)C(C)=CC(C)(C)N2 [Compound 1-27, 6-[4-(3-Acetylbenzoyloxy)-2-methoxyphenyl]-5-(5-methylthiophen-2-ylcarbonyloxymethyl)-2,2,4-trimethyl-1,2-dihydroquinoline] | 89 | 
COc1cc(OC(=O)Nc2cccnc2)ccc1-c1ccc2c(c1COC(=O)c1ccc(C)s1)C(C)=CC(C)(C)N2 [Compound 4-1, 6-[2-Methoxy-4-(pyridin-3-ylaminocarbonyloxy)phenyl]-5-(5-methylthiophen-2-ylcarbonyloxymethyl)-2,2,4-trim ethyl-1,2-dihydroquinoline] |  | 100
COc1cc(OC(=O)c2ccc(F)cc2)ccc1-c1ccc2c(c1COC(=O)c1ccc(C)s1)C(C)=CC(C)(C)N2 [Compound 1-48, 6-[4-(4-Fluorobenzoyloxy)-2-methoxyphenyl]-5-(5-methylthiophen-2-ylcarbonyloxymethyl)-2,2,4-trimethyl-1,2-dihydroquinoline] | 96 | 
COc1cc(OC(=O)c2ccoc2)ccc1-c1ccc2c(c1COC(=O)c1ccc(C)cc1)C(C)=CC(C)(C)N2 [Compound 1-3, 6-[4-(Furan-3-ylcarbonyloxy)-2-methoxyphenyl]-5-(4-methylbenzoyloxymethyl)-2,2,4-trimethyl-1,2-dihydroquinoline] | 100 | 
COc1cc(OC(=O)c2ccco2)ccc1-c1ccc2c(c1COC(=O)c1ccc(C)s1)C(C)=CC(C)(C)N2 [Compound 1-14, 6-[4-(Furan-2-ylcarbonyloxy)-2-methoxyphenyl]-5-(5-methylthiophen-2-ylcarbonyloxymethyl)-2,2,4-trimethyl-1,2-dihydroquinoline] | 96 | 
COc1cc(OC(=O)c2cccnc2)ccc1-c1ccc2c(c1COC(=O)c1ccc(C)cc1)C(C)=CC(C)(C)N2 [Compound 1-8, 5-(4-Methylbenzoyloxymethyl)-6-[2-methoxy-4-(pyridin-3-ylcarbonyloxy)phenyl]-2,2,4-trimethyl-1,2-dihydroquinoline] | 100 | 
COc1cc(OS(=O)(=O)CCC(F)(F)F)ccc1-c1ccc2c(c1COC(=O)c1ccc(C)s1)C(C)=CC(C)(C)N2 [Compound 2-1, 6-[2-Methoxy-4-(3,3,3-trifluoropropylsulfonyloxy)phenyl]-5-(5-methylthiophen-2-ylcarbonyloxymethyl)-2,2,4-trimethyl-1,2-dihydroquinoline] | 97 | 
COc1cc(OC(=O)c2sccc2Cl)ccc1-c1ccc2c(c1COC(=O)c1ccc(C)s1)C(C)=CC(C)(C)N2 [Compound 1-31, 6-[4-(3-Chlorothiophen-2-ylcarbonyloxy)-2-methoxyphenyl]-5-(5-methylthiophen-2-ylcarbonyloxymethyl)-2,2,4-trimethyl-1,2-dihydroquinoline] | 88 | 
COc1ccccc1C(=O)Oc1ccc(-c2ccc3c(c2COC(=O)c2ccc(C)cc2)C(C)=CC(C)(C)N3)c(OC)c1 [Compound 1-7, 6-[2-Methoxy-4-(2-methoxybenzoyloxy)phenyl]-5-(4-methylbenzoyloxymethyl)-2,2,4-trimethyl-1,2-dihydroquinoline] | 100 | 
COc1cc(OC(=O)c2ccccc2[N+](=O)[O-])ccc1-c1ccc2c(c1COC(=O)c1ccc(C)s1)C(C)=CC(C)(C)N2 [Compound 1-49, 6-[2-Methoxy-4-(2-nitrobenzoyloxy)phenyl]-5-(5-methylthiophen-2-ylcarbonyloxymethyl)-2,2,4-trimethyl-1,2-dihydroquinoline] | 98 | 
COc1cc(OC(=O)c2ccc(C)cc2)ccc1-c1ccc2c(c1COC(=O)c1ccc(C)s1)C(C)=CC(C)(C)N2 [Compound 1-47, 6-[2-Methoxy-4-(4-methylbenzoyloxy)phenyl]-5-(5-methylthiophen-2-ylcarbonyloxymethyl)-2,2,4-trimethyl-1,2-dihydroquinoline] | 96 | 
COc1cc(OS(=O)(=O)C(C)C)ccc1-c1ccc2c(c1COC(=O)c1ccc(C)s1)C(C)=CC(C)(C)N2 [Compound 2-4, 6-(4-Isopropylsulfonyloxy-2-methoxyphenyl)-5-(5-methylthiophen-2-ylcarbonyloxymethyl)-2,2,4-trimethyl-1,2-dihydroquinoline] | 100 | 
CCCCS(=O)(=O)Oc1ccc(-c2ccc3c(c2COC(=O)c2ccc(C)s2)C(C)=CC(C)(C)N3)c(OC)c1 [Compound 2-8, 6-(4-Butylsulfonyloxy-2-methoxyphenyl)-5-(5-methylthiophen-2-ylcarbonyloxymethyl)-2,2,4-trimethyl-1,2-dihydroquinoline] | 100 | 

Now from value to compound, other results behind:

inhibition at 20 µM (stock) [%] | SMILES | inhibition at 20 µM [%]
100 | CCCC(=O)Oc1ccc(-c2ccc3c(c2COC(=O)c2ccc(C)s2)C(C)=CC(C)(C)N3)c(OC)c1 [Compound 1-11, 6-(4-Butyryloxy-2-methoxyphenyl)-5-(5-methylthiophen-2-ylcarbonyloxymethyl)-2,2,4-trimethyl-1,2-dihydroquinoline] | 
100 | COc1cc(OS(=O)(=O)C2CCCC2)ccc1-c1ccc2c(c1COC(=O)c1ccc(C)s1)C(C)=CC(C)(C)N2 [Compound 2-5, 6-(4-Cyclopentylsulfonyloxy-2-methoxyphenyl)-5-(5-methylthiophen-2-ylcarbonyloxymethyl)-2,2,4-trimethyl-1,2-dihydroquinoline] | 
100 | COc1cc(OC(=O)c2cccnc2OC)ccc1-c1ccc2c(c1COC(=O)c1ccc(C)s1)C(C)=CC(C)(C)N2 [Compound 1-45, 6-[2-Methoxy-4-(2-methoxypyridin-3-ylcarbonyloxy)phenyl]-5-(5-methylthiophen-2-ylcarbonyloxymethyl)-2,2,4-trimethyl-1,2-dihydroquinoline] | 
94 | COc1cc(OC(=O)c2cncnc2)ccc1-c1ccc2c(c1COC(=O)c1ccc(C)s1)C(C)=CC(C)(C)N2 [Compound 1-23, 6-[2-Methoxy-4-(pyrimidin-5-ylcarbonyloxy)phenyl]-5-(5-methylthiophen-2-ylcarbonyloxymethyl)-2,2,4-trimethyl-1,2-dihydroquinoline] | 
95 | COc1ccc(C(=O)OCc2c(-c3ccc(OC(=O)c4cccnc4)cc3OC)ccc3c2C(C)=CC(C)(C)N3)cc1 [Compound 1-34, 5-(4-Methoxybenzoyloxymethyl)-6-[2-methoxy-4-(pyridin-3-ylcarbonyloxy)phenyl]-2,2,4-trimethyl-1,2-dihydroquinoline] | 
90 | COc1cc(OC(=O)c2ccccc2F)ccc1-c1ccc2c(c1COC(=O)c1ccc(C)s1)C(C)=CC(C)(C)N2 [Compound 1-20, 6-[4-(2-Fluorobenzoyloxy)-2-methoxyphenyl]-5-(5-methylthiophen-2-ylcarbonyloxymethyl)-2,2,4-trimethyl-1,2-dihydroquinoline] | 
100 | COc1cc(OC(=O)C(C)C)ccc1-c1ccc2c(c1COC(=O)c1ccc(C)s1)C(C)=CC(C)(C)N2 [Compound 1-43, 6-(4-Isopropylcarbonyloxy-2-methoxyphenyl)-5-(5-methylthiophen-2-ylcarbonyloxymethyl)-2,2,4-trimethyl-1,2-dihydroquinoline] | 
100 | COc1cc(OC(=O)c2cccnc2)ccc1-c1ccc2c(c1COC(=O)c1ccc(Br)s1)C(C)=CC(C)(C)N2 [Compound 1-37, 5-(5-Bromothiophen-2-ylcarbonyloxymethyl)-6-[2-methoxy-4-(pyridin-3-ylcarbonyloxy)phenyl]-2,2,4-trimethyl-1,2-dihydroquinoline] | 

Reference: patent US8563551B2, “Method for preventing or treating a disease related to the glucocorticoid receptor” (Santen Pharmaceutical Co., Ltd., priority 2006, dated 2013)
